Drawing on patent US20240166612A1, “ARYLTHIOETHER ACETAMIDE AND RELATED COMPOUNDS AND THEIR USE IN TREATING MEDICAL CONDITIONS” (X-Biotix Therapeutics, Inc., priority 2021, published 2024), this text covers MIC and IC50 for 30 compounds.

Experiment [1] has as its system P. aeruginosa LESB58. Briefly: Broth microdilution MIC, P. aeruginosa LESB58. It is filed as cell-based. The note with it: Pseudomonas aeruginosa; P. aeruginosa LESB58 clinical isolate, colistin-resistant, 37° C., 18 h. On the procedure:
(§1) Exemplary compounds from the above Examples were tested to determine their minimum inhibitory concentration (MIC) for exemplary strains of Escherichia and Pseudomonas bacteria using broth microdilution methods. Assay procedures and results are described below.
(§2) Broth microdilution assays were conducted according to Clinical and Laboratory Standards Institute guidelines (CLSI, M07-A^11: Clinical and Laboratory Standards Institute. Methods for Dilution Antimicrobial Susceptibility Tests for Bacteria that Grow Aerobically; Approved Standard-11th Edition. Wayne, PA: CLSI, 2018). Briefly, bacterial suspensions were adjusted to a density equivalent to a 0.5 McFarland standard and diluted in sterile, cation-adjusted Mueller-Hinton broth (Beckton Dickinson) to yield a final inoculum between 2×10^5 and 8×10^5 colony-forming units (CFU)/mL. An inoculum volume of 98 μL was added to wells containing 2 μL of 2-fold serial dilutions of drug (prepared in DMSO). All inoculated microdilution trays were incubated in ambient air at 37° C. for 18 h. […] Performance of the assay was monitored by the use of laboratory quality-control strains (S. aureus ATCC 29213 and P. aeruginosa ATCC 27853) and levofloxacin, a compound with a defined MIC spectrum, in accordance with CLSI guidelines (CLSI, M100Ed29: Clinical and Laboratory Standards Institute. Performance Standards for Antimicrobial Susceptibility Testing, 29th Edition. Wayne, PA: CLSI, 2018).
(§3) Multiple enterobacteriaceae strains were tested, including both wild-type strains and multi-drug resistance pump deficient mutants. Specific strains tested included the following: • Wild-type P. aeruginosa PAO1, • P. aeruginosa PAO1 ΔmexABoprM—Disabled multi-drug efflux system Δ(MexAB-OprM), • P. aeruginosa PAO397—PAO1Δ(mexAB-oprM) Δ(mexCD-oprJ) Δ(mexEF-oprN) Δ(mexJK) Δ(mexXY) ΔopmH, • P. aeruginosa LESB58—Clinical isolate; colistin-resistant, isolated in the United Kingdom in 1988 from a patient with cystic fibrosis • E. coli JW0452-3 (BW25113 JacrA::kan)—Disabled multi-drug efflux system (AcrAB-TolC).
(§4) Experimental results are provided in Table 11, which provides MIC values for wild-type P. aeruginosa PAO1 (“PAO1 WT MIC”), P. aeruginosa PAO ΔmexABoprM (“PAO1 KO MIC”), P. aeruginosa PAO397 (“PAO397 KO MIC”), P. aeruginosa LESB58 (“LESB58”), and E. coli JW0452-3 (BW25113 JacrA::kan) (“E. coli KO MIC”).

The test system of experiment [2] is Wild-type P. aeruginosa PAO1. Briefly: Broth microdilution MIC, wild-type P. aeruginosa PAO1. It counts as cell-based. The note with it: Pseudomonas aeruginosa; wild-type P. aeruginosa PAO1, 37° C., 18 h; read-out: PAO1 WT MIC. On the procedure:
as §1, §2, §3, §4

Experiment [3] concerns the target T1, recombinant LpxA enzyme (P. aeruginosa) (Pseudomonas aeruginosa, UniProt Q9X6P4).
T1 sequence (Q9X6P4 1-258): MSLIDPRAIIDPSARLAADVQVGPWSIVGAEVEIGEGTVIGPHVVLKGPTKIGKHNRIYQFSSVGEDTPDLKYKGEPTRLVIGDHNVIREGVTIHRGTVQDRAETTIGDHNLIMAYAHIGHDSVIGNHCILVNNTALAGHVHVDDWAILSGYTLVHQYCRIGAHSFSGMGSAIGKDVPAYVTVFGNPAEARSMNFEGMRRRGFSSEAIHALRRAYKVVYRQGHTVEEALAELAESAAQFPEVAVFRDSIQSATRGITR
Briefly: LpxA in vitro substrate acylation assay with RapidFire MS analysis (P. aeruginosa). It counts as biochemical. The note with it: P. aeruginosa enzyme 0.5 nM, PaACP-C10, 30 min. On the procedure:
Exemplary compounds from the above Examples were tested for ability to inhibit LpxA activity using an in vitro substrate acylation assay with RapidFire™ MS analysis. Assay procedures and results are described below.
Reactions were carried out in a final volume of 30 μL with 25 mM HEPES (pH 7.3), 150 mM NaCl, 2 mM DTT, 0.01% BSA, 5 μM UDP-GlcNac, recombinant LpxA enzyme (0.5 nM P. aeruginosa or 1.0 nM E. coli, both produced at Evotec), 0.5 μM acyl-transfer reagent (decanoyl P. aeruginosa acyl-carrier protein [PaACP-C10] or myristoyl E. coli acyl-carrier protein [EcACP-C1-4], both produced at Evotec), and 1% DMSO containing test compound. After 30 min incubation at room temperature, reactions were stopped by addition of 30 μL of 10% TCA in water.
Samples were centrifuged (4350 rpm, 4° C., 5 min), and then subjected to RapidFire™ MS analysis on an Agilent RapidFire 300 coupled to an Agilent 6460 triple-quadrupole mass spectrometer. Analytes were retained on a C4 (type A) cartridge using the following solvents and flow rates: • Pump 1—H2O with 5 mM NH4OAc at 2.0 mL/min, • Pump 2—MeOH/H2O (90/10) at 1.5 mL/min, • Pump 3—MeOH/H2O (90/10) at 0.5 mL/min, and • Pump 4—ACN (organic)/H2O (aqueous). Substrate and product of the reaction were detected in negative mode ESI-MS/MS by MRM (multiple reaction monitoring) of transitions 606.0/385.0 (UDP-GlcNAc substrate) and 776.2/385.0 (UDP-3-O—(R-3-hydroxydecanoyl)-GlcNAc product, for P. aeruginosa LpxA assay) or 832.2/385.0 (UDP-3-O—(R-3-hydroxymyristoyl)-GlcNAc product, for E. coli LpxA assay).
For IC50 determinations, peak areas of the substrate and product were compared to compute the proportion of product formed by the LpxA enzyme at each compound concentration.

The test system of experiment [4] is P. aeruginosa PAO397. Kind of experiment: Broth microdilution MIC, P. aeruginosa PAO397. It counts as cell-based. The note with it: Pseudomonas aeruginosa, PAO397, 18 h, read-out: PAO397 KO MIC. On the procedure: as §1, §2, §3, §4

Molecules are shown by their SMILES. Converted amounts (≈) assume the structure as drawn.

`[2H]C([2H])C([2H])([2H])c1ccccc1OCC(=O)N(Cc1nnc(N)o1)Cc1ccc(C#N)cc1F` [compound 113]: the results for the MIC in experiment [1] and in experiment [2] were 16 to 64 µg/mL (≈ 38.7 to 155 µM) and > 64 µg/mL, respectively.

For the compound `[2H]C([2H])(Oc1cc(F)cc(F)c1C([2H])([2H])C([2H])([2H])[2H])C(=O)N(Cc1ccc(C#N)nc1)Cc1nnc(N)o1` [compound 82], the MIC in experiment [1] is 16 to 64 µg/mL (≈ 36.7 to 147 µM); in experiment [2], > 64 µg/mL.

As for `CCc1c(F)cc(F)cc1OC(C)C(=O)N(Cc1nnc(N)o1)Cc1ccc(C#N)cc1F` (single isomer, unassigned) [Compound No. 100], the MIC in experiment [1] and in experiment [2] was 1 to 16 µg/mL (≈ 2.18 to 34.8 µM) in each case.

In the case of `[2H]C([2H])(Oc1ccccc1C([2H])([2H])C([2H])([2H])[2H])C(=O)N(Cc1nnc(N)o1)Cc1ccc(C#N)cc1F` [compound 114], the MIC in experiment [1] is 16 to 64 µg/mL (≈ 38.4 to 154 µM); in experiment [2], > 64 µg/mL.

Turning to `C[C@H](Sc1cc(F)cc(F)c1Cl)C(=O)N(Cc1nnc(N)o1)Cc1ccc(C#N)cc1F` [compound 103], the MIC in experiment [1] and in experiment [2] was > 64 µg/mL in each case.

With `NCCOc1ccc(Cl)c(SCC(=O)N(Cc2ccc(C(N)=O)c(C(=O)O)c2)Cc2nnc(N)o2)c1` [compound 119], the IC50 in experiment [3] was > 1000 nM.

`N#Cc1ccc(CN(Cc2nnc(N)o2)C(=O)CSc2cc(CN)ccc2Cl)cn1` [compound 115]: in experiment [2], the MIC is > 64 µg/mL.

For `[2H]C([2H])(Oc1cc(F)cc(F)c1C([2H])([2H])C([2H])([2H])[2H])C(=O)N(Cc1nnc(N)o1)Cc1ccc(C#N)cc1F` [compound 77, N-[(5-amino-1,3,4-oxadiazol-2-yl)methyl]-N-[(4-cyano-2-fluoro-phenyl)methyl]-2,2-dideuterio-2-[3,5-difluoro-2-(1,1,2,2,2-pentadeuterioethyl)phenoxy]acetamide], the MIC in experiment [1] and in experiment [2] was 1 to 16 µg/mL (≈ 2.21 to 35.4 µM) each time.

As to `Nc1nnc(CN(Cc2ccc(S(N)(=O)=O)cc2F)C(=O)COc2cc(F)cc(F)c2C2CC2)o1` [compound 80], the MIC in experiment [1] lay within 1 to 16 µg/mL (≈ 1.96 to 31.3 µM); in experiment [2], 16 to 64 µg/mL (≈ 31.3 to 125 µM).

In the case of `N#Cc1ccc(CN(Cc2nnc(N)o2)C(=O)/C=C/c2ccccc2Cl)c(F)c1` [compound 99], the MIC in experiment [1] and in experiment [2] was > 64 µg/mL throughout.

In the case of `CCc1ccccc1SCC(=O)N(CC(=O)NC)Cc1ccc(-n2cncn2)cc1` [compound 90], in experiment [3], the concentration for half-maximal inhibition (IC50) fell in the range of 100 to 1000 nM. In addition, the MIC in experiment [2] was > 64 µg/mL.

As to `N#Cc1ccc(CN(Cc2nnc(N)o2)C(=O)COc2ccccc2Cl)cn1` [compound 17], the figures for the MIC in experiment [2] and in experiment [4] were > 64 µg/mL and 1 to 16 µg/mL (≈ 2.51 to 40.1 µM), respectively.

As for `CC(C)c1ccccc1OCC(=O)N(Cc1ccc(C#N)cc1)Cc1nnc(N)o1` [compound 53], the MIC in experiment [2] is > 64 µg/mL; in experiment [4], 1 to 16 µg/mL (≈ 2.47 to 39.5 µM).

As to `N#Cc1ccc(CN(Cc2nnc(N)o2)C(=O)COc2cc(F)cc(F)c2C2CC2)cn1` [compound 85], the MIC in experiment [1] is 16 to 64 µg/mL (≈ 36.3 to 145 µM); in experiment [2], > 64 µg/mL.

For `CNC(=O)CN(Cc1ccc(-n2cncn2)cc1)C(=O)CSc1ccccc1Cl` [compound 91], the MIC in experiment [2] was > 64 µg/mL.

On to `C[C@H](Oc1ccccc1Cl)C(=O)N(Cc1ccc(C#N)cc1)Cc1nnc(N)o1` [compound 117], for which the IC50 in experiment [3] is > 1000 nM.

On to `N#Cc1ccc(CN(Cc2nnc(N)o2)C(=O)CSc2ccccc2CC(F)(F)F)c(F)c1` [compound 118], for which the MIC in experiment [1] and in experiment [2] was > 64 µg/mL each time.

Regarding `[2H]CC([2H])c1c(F)cc(F)cc1OCC(=O)N(Cc1nnc(N)o1)Cc1ccc(C#N)cc1F` (stereo not shown) [compound 112], the MIC in experiment [1] and in experiment [2] was 1 to 16 µg/mL (≈ 2.24 to 35.8 µM) each time.

`N#Cc1ccc(CN(Cc2nnc(N)o2)C(=O)COc2cc(F)cc(F)c2C2CC2)c(F)c1` [compound 81]: the MIC fell in the range of 1 to 16 µg/mL (≈ 2.19 to 35 µM) in experiment [1] and 16 to 64 µg/mL (≈ 35 to 140 µM) in experiment [2].

Take `N#Cc1ccc(CN(Cc2nnc(N)o2)C(=O)COc2ccc(F)cc2Cl)c(F)c1` [compound 121]: the MIC in experiment [1] and in experiment [2] was > 64 µg/mL in each case.

With `N#Cc1ccc(CN(CC(=O)NC2COC2)C(=O)CSc2ccccc2Cl)cc1` [Compound No. 1, 2-[[2-(2-Chlorophenyl)sulfanylacetyl]-[(4-cyanophenyl)methyl]amino]-N-(oxetan-3-yl)acetamide], the MIC in experiment [4] fell in the range of 1 to 16 µg/mL (≈ 2.33 to 37.2 µM).

Consider `Nc1nnc(CN(Cc2ccc(S(N)(=O)=O)cc2)C(=O)COc2cc(F)cc(F)c2Cl)o1` [compound 120], for which the minimum inhibitory concentration (MIC) in experiment [1] was 16 to 64 µg/mL (≈ 32.8 to 131 µM); in experiment [2] it was > 64 µg/mL.

For `N#Cc1ccc(CN(CC(=O)NC2CCNCC2)C(=O)CSc2ccccc2Cl)cc1` [compound 4], the MIC is > 64 µg/mL in experiment [2] and 16 to 64 µg/mL (≈ 35 to 140 µM) in experiment [4].

As to `N#Cc1ccc(CN(C(=O)CSc2ccccc2Cl)C2(c3nnc(N)o3)CC2)cc1` [compound 22], the MIC in experiment [2] is > 64 µg/mL; in experiment [4], 1 to 16 µg/mL (≈ 2.27 to 36.4 µM).

In the case of `N#Cc1ccc(CN(Cc2ccc3cn[nH]c3c2)C(=O)CSc2ccccc2Cl)cc1` [compound 71], in experiment [3], the IC50 was > 1000 nM. The MIC in experiment [2] is > 64 µg/mL.

For `CCc1c(F)cc(F)cc1OCC(=O)N(Cc1nnc(N)o1)Cc1ccc(S(N)(=O)=O)cc1F` [compound 79, N-[(5-Amino-1,3,4-oxadiazol-2-yl)methyl]-2-(2-ethyl-3,5-difluoro-phenoxy)-N-[(2-fluoro-4-sulfamoyl-phenyl)methyl]acetamide], the MIC in experiment [1] and in experiment [2] was 1 to 16 µg/mL (≈ 2 to 32 µM) throughout.

As to `CCc1c(F)cc(F)cc1O[C@@H](C)C(=O)N(Cc1nnc(N)o1)Cc1ccc(C#N)cc1F` [compound 101], the MIC in experiment [1] and in experiment [2] was > 64 µg/mL in each case.

Consider `[2H]C([2H])(Oc1cc(F)cc(F)c1C([2H])([2H])C([2H])([2H])[2H])C(=O)N(Cc1nnc(N)o1)Cc1ccc(S(N)(=O)=O)cc1F` [compound 111, N-[(5-Amino-1,3,4-oxadiazol-2-yl)methyl]-2,2-dideuterio-2-[3,5-difluoro-2-(1,1,2,2,2-pentadeuterioethyl)phenoxy]-N-[(2-fluoro-4-sulfamoyl-phenyl)methyl]acetamide], for which the MIC in experiment [1] is 1 to 16 µg/mL (≈ 1.97 to 31.6 µM); in experiment [2] it was 16 to 64 µg/mL (≈ 31.6 to 126 µM).

As for `Cc1ncc(CN(Cc2ccc(C#N)cc2)C(=O)CSc2ccccc2Cl)[nH]1` [compound 75], the MIC in experiment [2] was > 64 µg/mL; in experiment [4] it was 1 to 16 µg/mL (≈ 2.43 to 38.9 µM).

For the compound `C[C@@H](Sc1cc(F)cc(F)c1Cl)C(=O)N(Cc1nnc(N)o1)Cc1ccc(C#N)cc1F` [compound 98], the MIC in experiment [1] and in experiment [2] was > 64 µg/mL in each case.
